≈ marks a conversion by molar mass, not a printed value. Structures can show the parent of a compound that is named as a salt. Where two headings read alike, the source gives them in different places.
What was measured:
[1] = tested on: A549 (ATCC CCL 185): human lung carcinoma; test: In vitro antitumor activity, MTT assay, A549; format: cell-based; details: for IC50: Homo sapiens, A549, 48 h
Method: (§1) In vitro antitumor activity against human tumor cell lines
(§2) In vitro antitumor activity of the compounds according to the present invention was determined by MTT assay method against the following human tumor cell lines:
A549 (ATCC CCL 185): human lung carcinoma
(§3) In this test, the known antineoplastic compounds, Doxorubicin and Sulofenur, were used as the comparative agents.
(§4) Each of the tumor cells was cultured in RPMI 1640 media containing 10% fetal bovine serum, 100 IU/ml penicillin and 100 μg/ml streptomycin, and then periodically subcultured once or twice per week in trypsin-EDTA solution containing 0.05% trypsin and 0.53mM EDTA.4Na. The human tumor cell line thus obtained (10,000cells/100 μl) was plated on 96-well microplate and then cultured for 24 hrs at 37° C. in a 5% CO2 incubator. Test compound was dissolved in DMSO, sterilized with 0.22 μm PVDF filter, and then serially 5-fold diluted from 40 μg/ml to 0.00256μg/ml. 100 μl of the sample solution thus prepared and RPMI 1640 medium only (control group) were added to 96-well microplate containing the human tumor cell, respectively. The final concentration of the test compound was in the range from 20 μg/ml to 0.00128 μg/ml and the concentration of DMSO was below 0.5%. The cells were cultured for 48 hrs at 37° C. in a 5% CO2 incubator. MTT(3-(4,5-Dimethylthiazole-2-yl)-e,5-diphenyltetrazoliumbromide) was dissolved in physiological saline in a concentration of 2 mg/ml and the resulting solution was filtered through 0.22 μm PTFE filter. 25 μl of MTT solution thus prepared was added to each well of 96-well microplate and incubated for additional 4 hrs at 37° C. in a 5% CO2 incubator. Then, the content of microplate was centrifuged at 1000 rpm for 10 min, and supernatant was removed by flicking. The formazan formed from MTT by mitochondrial succinate dehydrogenase was dissolved in 100 μl of DMSO. The absorbance of each well was measured at 540nm by micro ELISA reader and the cytotoxicity was calculated by dividing the absorbance of test group by the absorbance of control group. After the calculated cytotoxicity (%) was plotted, the concentration of 50% tumor growth inhibition concentration (IC50) was estimated by Linear-Regression method.

[2] = tested on: KB (ATCC CCL 17): human epidermoid carcinoma; test: In vitro antitumor activity, MTT assay, KB; format: cell-based; details: for IC50: Homo sapiens, read-out: IC50 (KB)
Method: as §1, §2
KB (ATCC CCL 17): human epidermoid carcinoma
as §3, §4

[3] = tested on: Colo205 (ATCC CCL 222): human colon adenocarcinoma; test: In vitro antitumor activity, MTT assay, Colo205; format: cell-based; details: for IC50: Homo sapiens
Method: as §1, §2
Colo205 (ATCC CCL 222): human colon adenocarcinoma
as §3, §4

[4] = tested on: SK-OV-3 (ATCC HTB 77): human ovarian adenocarcinoma; test: In vitro antitumor activity, MTT assay, SK-OV-3; format: cell-based; details: for IC50: Homo sapiens
Method: as §1, §2
SK-OV-3 (ATCC HTB 77): human ovarian adenocarcinoma
as §3, §4

[5] = tested on: K562 (ATCC CCL 243): human chronic myelogenous leukemia; test: In vitro antitumor activity, MTT assay, K562; format: cell-based; details: Homo sapiens, K562, 48 h
Method: as §1, §2
K562 (ATCC CCL 243): human chronic myelogenous leukemia
as §3, §4

[6] = tested on: P388 murine leukemia cells; test: In vivo antitumor activity against P388 murine leukemia cell; design: species or system BDF1 mouse; details: once per 2 days for 10 days, median survival time
Method: In vivo antitumor activity against P388 murine leukemia cell
P388 murine leukemia cells were injected into BDF1 mouse intraperitoneally and grown in the peritoneal cavity. The P388 cells were periodically exudated and reinjected intraperitoneally into mouse for subculture.
The cells were exudated, washed, resuspended in saline (2×10^7 cells/ml), and then injected intraperitoneally again into BDF1 mouse (2×10^6 cells/0.1 ml).
Test compound dissolved in appropriate vehicle was administered intraperitonealy or orally into the mouse which was implanted with P388 murine leukemia tumor cells in the frequency of once per 2 days for 10 days. The vehicle was administered into the mouse of control group. Then, the number of live animals were daily checked to estimate the median survival time (MST).
T/C ratio(%) of each test compound was calculated according to the following formula, and the test results are shown in Table 6.
T/C(%)=(MST of test group.div.MST of control group)×100

[7] = COLO 205, Table 2, 48 hrs, read-out: IC50 (Colo205)
[8] = COLO 205, Table 3, 48 hrs, read-out: IC50 (Col205)

SMILES | IC50 ([1]; Table 2) [µg/mL] | IC50 ([2]; Table 2, MTT, 48 hrs) [µg/mL] | IC50 [3, 7] [µg/mL] | IC50 ([4]; SK-OV-3, Table 2, 48 hrs) [µg/mL] | also measured
COc1cccc2c1C(=O)c1c(O)c3c(c(O)c1C2=O)C[C@@](O)(C(=O)CO)C[C@@H]3O[C@H]1C[C@H](N)[C@H](O)[C@H](C)O1 [Doxorubicin, reference compound] | – | – | – | – | IC50 ([1]; Table 1): 0.742 µg/mL (≈ 1.37 µM); IC50 ([1]; Table 3): 0.67 µg/mL (≈ 1.23 µM); IC50 ([1]; Table 4): 1.08 µg/mL (≈ 1.99 µM); IC50 ([1]; Table 5): 1.68 µg/mL (≈ 3.09 µM); IC50 ([2]; 48 h): 0.914 µg/mL (≈ 1.68 µM); IC50 ([3]; COLO 205, 48 h, read-out: IC50 (Col205), Table 3): 6.3 µg/mL (≈ 11.6 µM); IC50 ([3]; COLO 205, 48 h, read-out: IC50 (Colo205), Table 1): 0.973 µg/mL (≈ 1.79 µM); IC50 ([3]; COLO 205, 48 h, read-out: IC50 (Colo205), Table 5): 0.961 µg/mL (≈ 1.77 µM); IC50 ([4]; SK-OV-3, 48 h, Table 1): 2.25 µg/mL (≈ 4.15 µM); IC50 ([4]; SK-OV-3, 48 h, Table 3): 1.31 µg/mL (≈ 2.42 µM); IC50 ([4]; SK-OV-3, 48 h, Table 4): 2.25 µg/mL (≈ 4.15 µM); IC50 ([4]; SK-OV-3, 48 h, Table 5): 1.6 µg/mL (≈ 2.94 µM); IC50 ([5]; read-out: IC50 (K562), Table 3): 0.276 µg/mL (≈ 0.508 µM); IC50 ([5]; read-out: IC50 (K562), Table 4): 0.962 µg/mL (≈ 1.77 µM); IC50 ([5]; read-out: IC50 (K562), Table 5): 0.78 µg/mL (≈ 1.44 µM)
CC1Cc2cc(S(=O)(=O)n3cc(-c4ccccc4)[nH]c3=O)ccc2N1C(=O)c1ccc(N)cc1 (stereo not drawn) [Example 12, 4-phenyl-1-[N-(4-aminobenzoyl)-2-methylindoline-5-sulfonyl]-2-imidazolone.HCl] | – | – | – | – | IC50 ([1]; Table 1): 0.321 µg/mL; IC50 ([2]; Table 1, MTT, 48 hrs): 0.072 µg/mL; IC50 ([3]; COLO 205, Table 1, 48 hrs, read-out: IC50 (Colo205)): 0.861 µg/mL; IC50 ([4]; SK-OV-3, Table 1, 48 hrs): 0.509 µg/mL; T/C rate (%) ([6]; 65 mg/kg p.o.): 115.4%
O=C(c1cccs1)N1CCc2cc(S(=O)(=O)n3cc(-c4ccccc4)[nH]c3=O)ccc21 [Example 17, 4-phenyl-1-(N-thiophenoylindoline-5-sulfonyl)-2-imidazolone] | – | – | – | – | IC50 (A549) ([1]; Table 1, 48 hrs): 0.046 µg/mL (≈ 0.102 µM); IC50 (KB) ([2]; Table 1, MTT, 48 hrs): 0.008 µg/mL (≈ 0.0177 µM); IC50 (Colo205) ([3]; Table 1, 48 hrs): 0.386 µg/mL (≈ 0.855 µM); IC50 (SK-OV-3) ([4]; Table 1, 48 hrs): 0.729 µg/mL (≈ 1.61 µM)
O=C(c1ccc(Cl)cc1)N1CCc2cc(S(=O)(=O)n3cc(-c4ccccc4)[nH]c3=O)ccc21 [Example 18, 4-phenyl-1-[N-(4-chlorobenzoyl)indoline-5-sulfonyl]-2-imidazolone] | 0.607 (≈ 1.26 µM) | 0.13 (≈ 0.271 µM) | 2.05 (≈ 4.27 µM) | > 20 | –
O=C(CCl)Nc1ccc(C(=O)N2CCc3cc(S(=O)(=O)n4cc(-c5ccccc5)[nH]c4=O)ccc32)cc1 [Example 19, 4-phenyl-1-[N-(4-chloroacetylaminobenzoyl)indoline-5-sulfonyl]-2-imidazolone] | 0.438 (≈ 0.816 µM) | 0.046 (≈ 0.0857 µM) | 0.58 (≈ 1.08 µM) | 0.202 (≈ 0.376 µM) | –
CC1Cc2cc(S(=O)(=O)n3cc(-c4ccccc4)[nH]c3=O)ccc2N1C(=O)c1ccc(NC(=O)CCl)cc1 (stereo not drawn) [Example 20, 4-phenyl-1-[N-(4-chloroacetylaminobenzoyl)-2-methylindoline-5-sulfonyl]-2-imidazolone] | 0.509 (≈ 0.924 µM) | 0.198 (≈ 0.359 µM) | 0.91 (≈ 1.65 µM) | 0.598 (≈ 1.09 µM) | –
CC1Cc2cc(S(=O)(=O)n3cc(-c4ccccc4)[nH]c3=O)ccc2N1C(=O)CCl (stereo not drawn) [Example 21, 4-phenyl-1-(N-chloroacetyl-2-methylindoline-5-sulfonyl)-2-imidazolone] | 1.13 (≈ 2.61 µM) | 1.53 (≈ 3.54 µM) | 0.834 (≈ 1.93 µM) | 4.71 (≈ 10.9 µM) | –
CNCC(=O)N1c2ccc(S(=O)(=O)n3cc(-c4ccccc4)[nH]c3=O)cc2CC1C (stereo not drawn) [Example 22, 4-phenyl-1-(N-methylaminoacetyl-2-methylindoline-5-sulfonyl)-2-imidazolone.HCl] | 3.24 | 0.688 | 3.8 | 3.08 | –
CC(C)NCC(=O)N1c2ccc(S(=O)(=O)n3cc(-c4ccccc4)[nH]c3=O)cc2CC1C (stereo not drawn) [Example 23, 4-phenyl-1-(N-isopropylaminoacetyl-2-methylindoline-5-sulfonyl)-2-imidazolone.HCl] | 1.14 | 0.429 | 3.45 | 4.03 | –
CC(C)NCC(=O)N1CCc2cc(S(=O)(=O)n3cc(-c4ccccc4)[nH]c3=O)ccc21 [Example 24, 4-phenyl-1-(N-isopropylaminoacetylindoline-5-sulfonyl)-2-imidazolone.HCl] | 3.48 | 0.879 | 3.35 | 8.77 | –
CC(C)CNCC(=O)N1c2ccc(S(=O)(=O)n3cc(-c4ccccc4)[nH]c3=O)cc2CC1C (stereo not drawn) [Example 25, 4-phenyl-1-(N-isobutylaminoacetyl-2-methylindoline-5-sulfonyl)-2-imidazolone.HCl] | 3.23 | 0.246 | 3.07 | 1.4 | –
CC(C)CNCC(=O)N1CCc2cc(S(=O)(=O)n3cc(-c4ccccc4)[nH]c3=O)ccc21 [Example 26, 4-phenyl-1-(N-isobutylaminoacetylindoline-5-sulfonyl)-2-imidazolone.HCl] | 5.47 | 1.99 | 9.09 | 10.1 | –
CC1Cc2cc(S(=O)(=O)n3cc(-c4ccccc4)[nH]c3=O)ccc2N1C(=O)CNC(C)(C)C (stereo not drawn) [Example 27, 4-phenyl-1-(N-t-butylaminoacetyl-2-methylindoline-5-sulfonyl)-2-imidazolone.HCl] | 1.45 | 0.317 | 5.68 | 2.44 | –
C=CCNCC(=O)N1c2ccc(S(=O)(=O)n3cc(-c4ccccc4)[nH]c3=O)cc2CC1C (stereo not drawn) [Example 28, 4-phenyl-1-(N-allylaminoacetyl-2-methylindoline-5-sulfonyl)-2-imidazolone.HCl] | 0.604 | 1.12 | 1.05 | 1.52 | –
CCNC(=O)N1CCc2cc(S(=O)(=O)N3CC(c4ccccc4)NC3=O)ccc21 (stereo not drawn) [Example 29, 4-phenyl-1-(N-ethylcarbamoylindoline-5-sulfonyl)4,5-dihydro-2-imidazolone] | – | – | – | – | IC50 ([1]; Table 3): 0.318 µg/mL (≈ 0.767 µM); IC50 [3, 8]: 1 µg/mL (≈ 2.42 µM); IC50 ([4]; SK-OV-3, Table 3, 48 hrs): 1.95 µg/mL (≈ 4.7 µM); IC50 ([5]; Table 3, read-out: IC50 (K562)): 1 µg/mL (≈ 2.42 µM); T/C rate (%) ([6]; 6.25 mg/kg i.p.): 113.6%
O=C(Nc1ccccc1)N1CCc2cc(S(=O)(=O)N3CC(c4ccccc4)NC3=O)ccc21 (stereo not drawn) [Example 34, 4-phenyl-1-(N-phenylcarbamoylindoline-5-sulfonyl)-4,5-dihydro-2-imidazolone] | – | – | – | – | IC50 ([1]; Table 3): 0.178 µg/mL (≈ 0.385 µM); IC50 [3, 8]: 1.26 µg/mL (≈ 2.72 µM); IC50 ([4]; SK-OV-3, Table 3, 48 hrs): 0.16 µg/mL (≈ 0.346 µM); IC50 ([5]; Table 3, read-out: IC50 (K562)): < 0.0064 µg/mL; T/C rate (%) ([6]; 6.25 mg/kg i.p.): 140.9%
